Source: the supplement of paper PMC9663587

Assays:
Ceritinib/LDK378 = compound: Cc1cc(Nc2ncc(Cl)c(Nc3ccccc3S(=O)(=O)C(C)C)n2)c(OC(C)C)cc1C1CCNCC1 [Ceritinib/LDK378]
THZ-P1-2 = compound: CN(C)C/C=C/C(=O)NC1=CC=C(C=C1)C(=O)NC2=CC=CC(=C2)NC3=NC=NC(=C3)C4=CNC5=CC=CC=C54 [THZ-P1-2]
[1] = compound: CCCCOc1c(C(=O)c2c(F)cc(C)cc2F)c[nH]c2nncc1-2
Saracatinib/AZD0530 = compound: CN1CCN(CCOc2cc(OC3CCOCC3)c3c(Nc4c(Cl)ccc5c4OCO5)ncnc3c2)CC1 [Saracatinib/AZD0530]
Luminespib/NVP-AUY922 = compound: CCNC(=O)c1noc(-c2cc(C(C)C)c(O)cc2O)c1-c1ccc(CN2CCOCC2)cc1 [Luminespib/NVP-AUY922]
BSJ-01-175 = compound: CN(C)C/C=C/C(=O)Nc1ccc(O[C@@H]2CCC[C@@H](Nc3ncc(Cl)c(-c4c[nH]c5ccccc45)n3)C2)cc1 [BSJ-01-175]
Neratinib/HKI272 = compound: CCOc1cc2ncc(C#N)c(Nc3ccc(OCc4ccccn4)c(Cl)c3)c2cc1NC(=O)/C=C/CN(C)C [Neratinib/HKI272]; assay: increase in dead-cell fraction, 72 h; higher = more death;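 further: breast cancer cell lines in 384-well plates, stained with Hoechst plus LIVE/DEAD far red dye and imaged, cells above an LDR intensity threshold counted dead, Hoechst-negative corpses included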
THZ1 = compound: CN(C)C/C=C/C(=O)Nc1ccc(C(=O)Nc2cccc(Nc3ncc(Cl)c(-c4c[nH]c5ccccc45)n3)c2)cc1 [THZ1]; assay: as above
[2] = compound: CCN1CCN(Cc2ccc(Nc3ncc(F)c(-c4cc(F)c5nc(C)n(C(C)C)c5c4)n3)nc2)CC1; assay: as above
YKL-5-124 = compound: C=CC(=O)Nc1ccc(C(=O)Nc2[nH]nc3c2CN(C(=O)N[C@H](CN(C)C)c2ccccc2)C3(C)C)cc1 [YKL-5-124]; assay: as above
THZ531 = compound: CN(C)C/C=C/C(=O)Nc1ccc(C(=O)N2CCC[C@@H](Nc3ncc(Cl)c(-c4c[nH]c5ccccc45)n3)C2)cc1 [THZ531]; assay: as above
LEE011/Ribociclib = compound: CN(C)C(=O)c1cc2cnc(Nc3ccc(N4CCNCC4)cn3)nc2n1C1CCCC1 [LEE011/Ribociclib]; assay: as above
[3] = compound: CC(=O)c1c(C)c2cnc(Nc3ccc(N4CCNCC4)cn3)nc2n(C2CCCC2)c1=O; assay: as above
BSJ-03-123 = compound: CC(=O)c1c(C)c2cnc(Nc3ccc(N4CCN(CCOCCOCCOCCNC(=O)COc5cccc6c5C(=O)N(C5CCC(=O)NC5=O)C6=O)CC4)cn3)nc2n(C2CCCC2)c1=O [BSJ-03-123]; assay: as above
Flavopiridol = compound: CN1CC[C@H](c2c(O)cc(O)c3c(=O)cc(-c4ccccc4Cl)oc23)[C@H](O)C1 [Flavopiridol]; assay: as above
[4] = compound: CCc1cnn2c(NCc3ccc[n+]([O-])c3)cc(N3CCCC[C@H]3CCO)nc12; assay: as above
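Wherever GR50, 72 h is given: breast cancer and non-malignant breast epithelial cell lines, Deep Dye Drop or Dye Drop imaging, nine half-log doses, GR normalized to time-zero plates and DMSO-only controls.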

With CAL120 the “GR50, 72 h” value (Ceritinib/LDK378) was 0.799 µM, the “GR50, 72 h” value (THZ-P1-2) was 6.25 µM and the “GR50, 72 h” value [1] was 2.2 µM. The “GR50, 72 h” value (Saracatinib/AZD0530) was greater than 10 µM, the “GR50, 72 h” value (Luminespib/NVP-AUY922) was 0.00281 µM and the “GR50, 72 h” value (BSJ-01-175) was 0.0411 µM. The “increase in dead-cell fraction” value (Neratinib/HKI272; 0.0003162 µM) was -0.0012, the “increase in dead-cell fraction” value (Neratinib/HKI272; 0.001 µM) was -0.0046 and the “increase in dead-cell fraction” value (Neratinib/HKI272; 0.003162 µM) was -0.0039. For the same cell line, the “increase in dead-cell fraction” value (Neratinib/HKI272; 0.01 µM) was -0.0045, the “increase in dead-cell fraction” value (Neratinib/HKI272; 0.03162 µM) was 0.0031 and the “increase in dead-cell fraction” value (Neratinib/HKI272; 0.1 µM) was -0.0024. The “increase in dead-cell fraction” value (Neratinib/HKI272; 0.3162 µM) was 0.0027, the “increase in dead-cell fraction” value (Neratinib/HKI272; 1 µM) was 0.0247 and the “increase in dead-cell fraction” value (Neratinib/HKI272; 3.162 µM) was 0.571. The “increase in dead-cell fraction” value (THZ1; 0.0001 µM) was -0.0036, the “increase in dead-cell fraction” value (THZ1; 0.0003162 µM) was 0.0008 and the “increase in dead-cell fraction” value (THZ1; 0.001 µM) was -0.0008. The “increase in dead-cell fraction” value (THZ1; 0.003162 µM) was 0.0033, the “increase in dead-cell fraction” value (THZ1; 0.01 µM) was 0.0048 and the “increase in dead-cell fraction” value (THZ1; 0.03162 µM) was 0.0266. The “increase in dead-cell fraction” value (THZ1; 0.1 µM) was 0.0311, the “increase in dead-cell fraction” value (THZ1; 0.3162 µM) was 0.0265 and the “increase in dead-cell fraction” value (THZ1; 1 µM) was 0.0708. The “increase in dead-cell fraction” value ([2]; 0.001 µM) was -0.0028, the “increase in dead-cell fraction” value ([2]; 0.003162 µM) was -0.0021 and the “increase in dead-cell fraction” value ([2]; 0.01 µM) was 0.0053. The “increase in dead-cell fraction” value ([2]; 0.03162 µM) was 0.0134, the “increase in dead-cell fraction” value ([2]; 0.1 µM) was 0.0398 and the “increase in dead-cell fraction” value ([2]; 0.3162 µM) was 0.0603. The “increase in dead-cell fraction” value ([2]; 1 µM) was 0.146, the “increase in dead-cell fraction” value ([2]; 3.162 µM) was 0.248 and the “increase in dead-cell fraction” value ([2]; 10 µM) was 0.249. For the same cell line, the “increase in dead-cell fraction” value (YKL-5-124; 0.001 µM) was 0.0168, the “increase in dead-cell fraction” value (YKL-5-124; 0.003162 µM) was 0.0283 and the “increase in dead-cell fraction” value (YKL-5-124; 0.01 µM) was 0.0348. The “increase in dead-cell fraction” value (YKL-5-124; 0.03162 µM) was 0.0304, the “increase in dead-cell fraction” value (YKL-5-124; 0.1 µM) was 0.0343 and the “increase in dead-cell fraction” value (YKL-5-124; 0.3162 µM) was 0.0427. The “increase in dead-cell fraction” value (YKL-5-124; 1 µM) was 0.0333, the “increase in dead-cell fraction” value (YKL-5-124; 3.162 µM) was 0.0461 and the “increase in dead-cell fraction” value (YKL-5-124; 10 µM) was 0.0476. For the same cell line, the “increase in dead-cell fraction” value (THZ531; 0.0001 µM) was 0.0032, the “increase in dead-cell fraction” value (THZ531; 0.0003162 µM) was -0.0012 and the “increase in dead-cell fraction” value (THZ531; 0.001 µM) was -0.0004. For the same cell line, the “increase in dead-cell fraction” value (THZ531; 0.003162 µM) was -0.0009, the “increase in dead-cell fraction” value (THZ531; 0.01 µM) was -0.0022 and the “increase in dead-cell fraction” value (THZ531; 0.03162 µM) was 0.0046. The “increase in dead-cell fraction” value (THZ531; 0.1 µM) was 0.0275, the “increase in dead-cell fraction” value (THZ531; 0.3162 µM) was 0.0465 and the “increase in dead-cell fraction” value (THZ531; 1 µM) was 0.0403. For the same cell line, the “increase in dead-cell fraction” value (LEE011/Ribociclib; 0.001 µM) was -0.0051, the “increase in dead-cell fraction” value (LEE011/Ribociclib; 0.003162 µM) was -0.0023 and the “increase in dead-cell fraction” value (LEE011/Ribociclib; 0.01 µM) was 0.0009. The “increase in dead-cell fraction” value (LEE011/Ribociclib; 0.03162 µM) was -0.0029, the “increase in dead-cell fraction” value (LEE011/Ribociclib; 0.1 µM) was 0 and the “increase in dead-cell fraction” value (LEE011/Ribociclib; 0.3162 µM) was 0.001. The “increase in dead-cell fraction” value (LEE011/Ribociclib; 1 µM) was -0.0006, the “increase in dead-cell fraction” value (LEE011/Ribociclib; 3.162 µM) was 0.0024 and the “increase in dead-cell fraction” value (LEE011/Ribociclib; 10 µM) was 0.0041. The “increase in dead-cell fraction” value ([3]; 0.0003162 µM) was -0.0011, the “increase in dead-cell fraction” value ([3]; 0.001 µM) was -0.0036 and the “increase in dead-cell fraction” value ([3]; 0.003162 µM) was 0.0022. For the same cell line, the “increase in dead-cell fraction” value ([3]; 0.01 µM) was -0.0072, the “increase in dead-cell fraction” value ([3]; 0.03162 µM) was 0.0004 and the “increase in dead-cell fraction” value ([3]; 0.1 µM) was 0.0047. For the same cell line, the “increase in dead-cell fraction” value ([3]; 0.3162 µM) was 0.0049, the “increase in dead-cell fraction” value ([3]; 1 µM) was 0.0051 and the “increase in dead-cell fraction” value ([3]; 3.162 µM) was 0.0096. For the same cell line, the “increase in dead-cell fraction” value (BSJ-03-123; 0.001 µM) was -0.0001, the “increase in dead-cell fraction” value (BSJ-03-123; 0.003162 µM) was 0.0019 and the “increase in dead-cell fraction” value (BSJ-03-123; 0.01 µM) was -0.0014. The “increase in dead-cell fraction” value (BSJ-03-123; 0.03162 µM) was -0.0007, the “increase in dead-cell fraction” value (BSJ-03-123; 0.1 µM) was -0.0013 and the “increase in dead-cell fraction” value (BSJ-03-123; 0.3162 µM) was 0.0033. The “increase in dead-cell fraction” value (BSJ-03-123; 1 µM) was 0.004, the “increase in dead-cell fraction” value (BSJ-03-123; 3.162 µM) was 0.0059 and the “increase in dead-cell fraction” value (BSJ-03-123; 10 µM) was 0.0482. The “increase in dead-cell fraction” value (Flavopiridol; 0.0001 µM) was -0.0013, the “increase in dead-cell fraction” value (Flavopiridol; 0.0003162 µM) was 0.002 and the “increase in dead-cell fraction” value (Flavopiridol; 0.001 µM) was 0.0027. The “increase in dead-cell fraction” value (Flavopiridol; 0.003162 µM) was -0.0004, the “increase in dead-cell fraction” value (Flavopiridol; 0.01 µM) was -0.0008 and the “increase in dead-cell fraction” value (Flavopiridol; 0.03162 µM) was 0.0016. The “increase in dead-cell fraction” value (Flavopiridol; 0.1 µM) was 0.0004, the “increase in dead-cell fraction” value (Flavopiridol; 0.3162 µM) was 0.0194 and the “increase in dead-cell fraction” value (Flavopiridol; 1 µM) was 0.0425. For the same cell line, the “increase in dead-cell fraction” value ([4]; 0.0001 µM) was -0.0093, the “increase in dead-cell fraction” value ([4]; 0.0003162 µM) was -0.0043 and the “increase in dead-cell fraction” value ([4]; 0.001 µM) was -0.0016. The “increase in dead-cell fraction” value ([4]; 0.003162 µM) was 0.0101, the “increase in dead-cell fraction” value ([4]; 0.01 µM) was 0.132 and the “increase in dead-cell fraction” value ([4]; 0.03162 µM) was 0.241. The “increase in dead-cell fraction” value ([4]; 0.1 µM) was 0.233, the “increase in dead-cell fraction” value ([4]; 0.3162 µM) was 0.25 and the “increase in dead-cell fraction” value ([4]; 1 µM) was 0.208.
